How the values were obtained:
T-cell [1] = experiment: IL-2 secretion from T-cells co-stimulated with anti-CD3 and anti-CD28 antibody (Biological Example 2); type: cell-based, human; conditions: Homo sapiens, T-cell, read-out: IL-2 secretion Anti-CD3/Anti-CD28 stimulation; for fold induction at 0.3 µM: 0.3 μM Cbl-b inhibitor; for fold induction at 1 µM: 1 μM Cbl-b inhibitor; for fold induction at 4 µM: 4 μM Cbl-b inhibitor
Summary of the method: (§1)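 T-cells were stimulated with anti-CD3 antibody alone or with anti-CD28 antibody, in the presence or absence of Cbl-b inhibitor. IL-2 secretion or CD25 surface staining was measured, and values expressed as fold over the uninhibited baseline […].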

T-cell [2] = experiment: CD25 cell surface staining on T-cells co-stimulated with anti-CD3 and anti-CD28 antibody (Biological Example 2); type: cell-based, human; conditions: Homo sapiens, T-cell, read-out: CD25 staining Anti-CD3/Anti-CD28 stimulation; for fold induction at 0.3 µM: 0.3 μM Cbl-b inhibitor; for fold induction at 1 µM: 1 μM Cbl-b inhibitor; for fold induction at 4 µM: 4 μM Cbl-b inhibitor
Summary of the method: as §1

T-cell [3] = experiment: IL-2 secretion from T-cells stimulated with anti-CD3 antibody alone (Biological Example 2); type: cell-based, human; conditions: T-cell, read-out: IL-2 secretion Anti-CD3 stimulation; for fold induction at 1 µM: 1 μM Cbl-b inhibitor; for fold induction at 8 µM: 8 μM Cbl-b inhibitor
Cbl-b (residues 36-427) = Cbl-b (residues 36-427) (Homo sapiens, UniProt Q13191); experiment: Cbl-b binding assay (SPR, Biacore T200); conditions: 20° C., 1:1 binding model
Cbl-b (residues 36-427), sequence (Q13191 36-427): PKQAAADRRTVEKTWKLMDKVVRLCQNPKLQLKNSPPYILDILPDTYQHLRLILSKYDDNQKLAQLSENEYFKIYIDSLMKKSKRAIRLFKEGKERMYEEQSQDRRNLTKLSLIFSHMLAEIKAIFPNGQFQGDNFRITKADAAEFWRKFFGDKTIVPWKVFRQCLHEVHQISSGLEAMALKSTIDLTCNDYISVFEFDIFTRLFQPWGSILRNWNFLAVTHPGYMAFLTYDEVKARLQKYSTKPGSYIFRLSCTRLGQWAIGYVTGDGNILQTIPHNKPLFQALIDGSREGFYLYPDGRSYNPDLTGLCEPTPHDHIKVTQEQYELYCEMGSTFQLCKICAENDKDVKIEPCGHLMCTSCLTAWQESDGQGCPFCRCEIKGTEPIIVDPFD
Summary of the method: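 Steps: capture protein on NeutrAvidin surface; inject compound dilutions (8 or 10 points from 100 or 50 μM) 50 s; allow 90-180 s dissociation; regenerate 20 s with 0.3 M NaCl. Runs at 20° C in HEPES pH 7.5/100 mM NaCl/2% DMSO; 1:1 fitting.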

[4] = fold change over baseline, primary human total T-cells
[5] = fold change over baseline (anti-CD3/anti-CD28 stimulated T-cells without inhibitor)

Compound	fold induction at 0.3 µM (T-cell [1]; [4])	fold induction at 1 µM (T-cell [1]; [4])	fold induction at 4 µM (T-cell [1]; [4])	fold induction at 0.3 µM (T-cell [2]; [4])	fold induction at 1 µM (T-cell [2]; [4])	fold induction at 4 µM (T-cell [2]; [4])	fold induction at 1 µM (T-cell [3]; [4])	fold induction at 8 µM (T-cell [3]; [4])	Kd (Cbl-b (residues 36-427))	fold induction at 0.3 µM (T-cell [1]; [5])	fold induction at 1 µM (T-cell [1]; [5])	fold induction at 0.3 µM (T-cell [2]; [5])	fold induction at 1 µM (T-cell [2]; [5])	fold induction at 1 µM (T-cell [3]; Homo sapiens, fold change over baseline (anti-CD3/anti-CD28 stimulated T-cells without inhibitor))
C[C@H](Cc1nncn1C)c1cc(F)cc(N2Cc3c(cccc3C(F)(F)F)C2=O)c1 [Compound 281a, 2-[3-Fluoro-5-[(1R)-1-methyl-2-(4-methyl-1,2,4-triazol-3-yl)ethyl]phenyl]-4-(trifluoromethyl)isoindolin-1-one]	1.01 to 2.5	1.01 to 2.5	2.51 to 5	1.01 to 1.3	1.01 to 1.3	1.31 to 1.5	< 0.05	0.051 to 0.1	100 to 300 nM	–	–	–	–	–
Cn1cnnc1[C@@H]1C[C@@H]1c1cccc(N2Cc3c(cccc3C(F)(F)F)C2=O)c1 [Compound 282, 2-(3-((1S,2R)-2-(4-methyl-4H-1,2,4-triazol-3-yl)cyclopropyl)phenyl)-4-(trifluoromethyl)isoindolin-1-one]	< 1	1.01 to 2.5	2.51 to 5	> 1.76	> 1.76	> 1.76	< 0.05	< 0.05	301 to 1000 nM	–	–	–	–	–
Cn1cnnc1[C@@H]1CC[C@@H]1c1cccc(N2Cc3c(cccc3C(F)(F)F)C2=O)c1 [Compound 283b, 2-(3-((1S,2R)-2-(4-methyl-4H-1,2,4-triazol-3-yl)cyclobutyl)phenyl)-4-(trifluoromethyl)isoindolin-1-one]	5 to 7.5	> 7.5	> 7.5	1.01 to 1.3	1.01 to 1.3	1.01 to 1.3	0.101 to 0.15	> 0.201	301 to 1000 nM	–	–	–	–	–
Cc1ccc(C(=O)Nc2cccc(C(C)C(F)(F)c3nncn3C)c2)nc1C1CC1 (stereo not drawn) [Compound 286, 6-cyclopropyl-N-(3-(1,1-difluoro-1-(4-methyl-4H-1,2,4-triazol-3-yl)propan-2-yl)phenyl)-5-methylpicolinamide]	1.01 to 2.5	1.01 to 2.5	2.51 to 5	< 1	< 1	1.01 to 1.3	0.051 to 0.1	0.101 to 0.15	301 to 1000 nM	–	–	–	–	–
Cn1cnnc1C[C@](C)(F)c1cccc(N2Cc3c(cccc3C(F)(F)F)C2=O)c1 [Compound 298b, (S)-2-(3-(2-fluoro-1-(4-methyl-4H-1,2,4-triazol-3-yl)propan-2-yl)phenyl)-4-(trifluoromethyl)isoindolin-1-one]	1.01 to 2.5	1.01 to 2.5	1.01 to 2.5	1.01 to 1.3	< 1	1.01 to 1.3	0.051 to 0.1	0.101 to 0.15	100 to 300 nM	–	–	–	–	–
C[C@H](Cc1nncn1C)c1ccnc(NC(=O)c2cccc(C(F)(F)F)n2)c1 [Compound 302, (R)-N-(4-(1-(4-methyl-4H-1,2,4-triazol-3-yl)propan-2-yl)pyridin-2-yl)-6-(trifluoromethyl)picolinamide]	2.51 to 5	2.51 to 5	> 7.5	1.01 to 1.3	1.01 to 1.3	1.01 to 1.3	< 0.05	0.051 to 0.1	1000 to 3000 nM	–	–	–	–	–
C[C@H](Cc1nncn1C)c1ccnc(N2Cc3c(cccc3C(F)(F)F)C2=O)c1 [Compound 304b, (R)-2-(4-(1-(4-methyl-4H-1,2,4-triazol-3-yl)propan-2-yl)pyridin-2-yl)-4-(trifluoromethyl)isoindolin-1-one]	< 1	< 1	1.01 to 2.5	1.01 to 1.3	1.01 to 1.3	1.31 to 1.5	< 0.05	< 0.05	1000 to 3000 nM	–	–	–	–	–
C[C@H](Cc1nncn1C)c1cccc(NC(=O)c2nc(C(F)(F)F)c[nH]2)c1 [Compound 326, (R)-N-(3-(1-(4-methyl-4H-1,2,4-triazol-3-yl)propan-2-yl)phenyl)-4-(trifluoromethyl)-1H-imidazole-2-carboxamide]	1.01 to 2.5	2.51 to 5	2.51 to 5	1.01 to 1.3	1.01 to 1.3	1.01 to 1.3	0.051 to 0.1	> 0.201	100 to 300 nM	–	–	–	–	–
Cn1cnnc1[C@@H]1C[C@@H]1c1cccc(NC(=O)c2nc3c(C(F)(F)F)cccc3[nH]2)c1 [Compound 332, N-(3-((1S,2R)-2-(4-methyl-4H-1,2,4-triazol-3-yl)cyclopropyl)phenyl)-4-(trifluoromethyl)-1H-benzo[d]imidazole-2-carboxamide]	1.01 to 2.5	1.01 to 2.5	2.51 to 5	1.01 to 1.3	1.01 to 1.3	1.01 to 1.3	0.101 to 0.15	> 0.201	301 to 1000 nM	–	–	–	–	–
Cc1cc(C(=O)Nc2cccc([C@@](C)(F)C(F)(F)c3nncn3C)c2)nc(C2CC2)n1 [Compound 344, (R)-2-Cyclopropyl-6-methyl-N-(3-(1,1,2-trifluoro-1-(4-methyl-4H-1,2,4-triazol-3-yl)propan-2-yl)phenyl)pyrimidine-4-carboxamide]	1.01 to 2.5	2.51 to 5	> 7.5	1.01 to 1.3	1.31 to 1.5	1.31 to 1.5	0.101 to 0.15	> 0.201	< 100 nM	–	–	–	–	–
C[C@H](Cc1nncn1C)c1cc(NCCO)nc(N2Cc3c(cccc3C(F)(F)F)C2=O)c1 [Compound 357, (R)-2-(6-(2-hydroxyethylamino)-4-(1-(4-methyl-4H-1,2,4-triazol-3-yl)propan-2-yl)pyridin-2-yl)-4-(trifluoromethyl)isoindolin-1-one]	1.01 to 2.5	1.01 to 2.5	2.51 to 5	1.01 to 1.3	1.01 to 1.3	1.01 to 1.3	0.051 to 0.1	0.151 to 0.2	100 to 300 nM	–	–	–	–	–
C[C@H](Cc1nncn1C)c1cc(-c2cn[nH]c2)nc(N2Cc3c(cccc3C(F)(F)F)C2=O)c1 [Example 684, (R)-2-(4-(1-(4-methyl-4H-1,2,4-triazol-3-yl)propan-2-yl)-6-(1H-pyrazol-4-yl)pyridin-2-yl)-4-(trifluoromethyl)isoindolin-1-one]	–	–	–	–	–	–	–	–	1000 to 3000 nM	< 1	< 1	< 1	< 1	0.051 to 0.1
